According to patent US20250288206A1, “SYSTEMS AND METHODS FOR MONITORING OF DELIVERY OF LABEL-FREE DRUGS” (City University of Hong Kong, priority 2024, published 2025):

Tests used:
[1] = Release study of BA-DMSO liposome by dialysis (CEST MRI and UV 257 nm); assay type: physicochemical; conditions: at the end of dialysis, BA in 10% DMSO in liposomes
Experimental: The size, polydispersity index (PDI), and surface charge of DMSO liposome were measured by dynamic light scattering using Zetasizer (Malvern Instruments, UK). Liposome concentration was measured by light scattering using NanoSight (Malvern Instruments, UK). To study the release property, dialysis cassettes with molecular weight cut-off of 10 kDa (Thermo Fisher, Waltham, USA) were used. The cassettes were first hydrated in HBS for 2 minutes. 1 mL of liposome sample was then loaded into the membrane chamber of two separate cassettes and excess air was removed by gentle squeezing of the membrane. The loaded cassettes were submerged into two beakers with 50 mL HBS at 37° C. At 15 min, 30 min, 1 hour, and 3 hour, 200 μL of dialyzed liposomes were taken out for CEST MRI measurement. In the other dialysis cassette, 1 mL of dialysis medium were taken out from the cassette at each timepoint for UV spectrometric measurement at an absorbance of 257 nm, and 1 mL of fresh medium was added after each time the medium was taken out. The retention of drug within liposome before and after dialysis was determined by measuring the UV absorbance of the supernatant obtained by treating liposome solutions with 10% Triton-X solution, sonicating at 42° C. for 1 hour, and centrifuging at 10,000 rpm. Concentration of BA was determined from BA standard curve.

[2] = Bloch-McConnell fitting of DMSO CEST peak; assay type: physicochemical; conditions: 10% v/v DMSO
Experimental: During the course leading to the present invention, a series of internal and external factors that can influence DMSO's CEST effect were examined. DMSO's concentration linearly correlated with observed signal magnitude, while the change in signal when varying pH from pH 5.5 to pH 8 was less obvious. As temperature went down from 40° C. to 20° C., DMSO's CEST peak gradually moved upfield (please see FIGS. 1F to 1G). It appears that intermolecular interaction between DMSO and water was dependent on temperature. […] Exchange rate and was estimated with Bloch-McConnell fitting. Input of solute concentration was 1.41 M (molar concentration of 10% v/v DMSO) multiplied by a factor of 1.4, which was an estimation of concentration of “structured” water that formed by intermolecular interaction with DMSO and thereby served as relaying sites.

Q: For O=C1CC(=O)NC(=O)N1 [BA, barbituric acid], which BA content released [1] is on record?
A: The BA content released was “around 80%”.

Q: Which results are given for C[S+](C)[O-] [DMSO, dimethyl sulfoxide]?
A: estimated exchange rate ([2]; Bloch-McConnell fitting): around 2 Hz; Kex ([2]; fitted value, B0 3T, B1 1.2 μT, Tsat 4 s): 2.1341 s⁻¹
